The values below come from patent US20260243781A1, “METHOD” (Philip Morris Products S.A., priority 2023, published 2026).

In one data set the test system is Rat hepatocytes. The conditions noted are these: Rat hepatocytes, 50,000 cells/well, menadione-treated; cited from earlier work.
The subject of another data set is HepG2. The conditions noted are these: HepG2, 10,000 cells/well, menadione-treated; cited from earlier work.
Data set [1] has as its system 3D bronchial cultures. The experiment in a line: Cell viability in 3D bronchial cultures. As to conditions: lipid-soluble menadione. Type of data set: cell-based, human.
The test system of data set [2] is A549 lung cell line. The experiment in a line: Cell viability in A549 lung cell line. The conditions noted are these: A549, two highest concentrations. It counts as cell-based, human.
The test system of a further data set is A549. The conditions noted are these: A549, 5,000 cells/well, menadione-treated; cited from earlier work.
The test system of data set [3] is NHBE cells. The experiment in a line: Modified GSH/GSSG-Glo assay in NHBE cells. Type of data set: cell-based, human. The protocol:
• 1. A tissues sample is treated basolaterally in medium containing 25 μM ROS-GloTM H2O2 substrate for the desired exposure duration. • Treatment duration is not longer than 6 hours due to instability of the substrate. • 2. After treatment, 75 μL of the medium is collected for the ROS endpoint (see example 3), and the remaining cell or tissue sample transferred to new 24-well plate for the GSH/GSSG endpoint. ROS samples are stored at 4° C. for a maximum total of 6 hours taking into account the treatment duration, while GSH/GSSG samples must be processed immediately. This Specific Example Based on GSH/GSSG-GloTM Assay Kit Catalogue #[…] and Described in Technical Manual #TM344 from Promega • (A) Starting with the cell or tissue sample from point 2 of Example 1, the cell supernatant is removed. • (B) 100 μL of cold Passive lysis buffer is 1× diluted in water is added per well, to tissue/cell samples and shaken for 5 min at 300 rpm on ice. • (C) 100 μL of lysate is placed into 2 wells containing 50 μL each. • (D) In one well 1 μL of Luciferin-NT is added for quantification of total GSH. • (E) In the other well, 1 μL of Luciferin-NT and 0.5 μL of N-Ethylmaleimide (NEM) at 25 mM is added for quantification of oxidized GSSG. • (F) Both wells are incubated for 5 min shaking at 300 rpm at room temperature. • (G) 50 μL of Luciferin Generation Reagent is added per well, and both wells shaken for 1 min. • (H) Both wells are incubated for 29 min standing at room temperature. • (I) 100 μL of Luciferin detection reagent is added to both wells and they are shaken for 1 min. • (J) Both wells are incubated for 14 min. • (K) Both wells are transferred to an assay plate containing a calibration curve (suitably prepared as in the supplier's protocol). • (L) The luminescence of each well is measured with FLUOstar® Omega “GSHG assay” In this example oxidative stress was simulated by adding menadione sodium bisulfite to four samples. Four of the samples had 10 μM, 30 μM, 100 μM or 300 μM of menadione sodium bisulfite respectively added to the medium to simulate increasing levels of oxidative stress. The fifth sample was used as the vehicle control wherein on the medium and 0.3% water were added. The assays were performed in triplicate on NHBE cells. In the top row of FIG. 9, the same experiments of the invention as per Example 6 (shown top row of FIG. 8) were carried out. In addition, the ROS endpoint analysis method of the invention (as per Example 5 above) was carried out on the same samples at the 1 hour and 2 hour time points (shown in FIG. 9, bottom row). A star (*) indicates significance P<0.05 paired t-test. Two stars (**) indicates significance P<0.01 paired t-test. The cells used where an NHBE cell line exposed to water-soluble menadione sodium bisulfite.

Another data set deals with HepaRG ®. As to conditions: HepaRG, 50,000 cells/well, menadione-treated; cited from earlier work.
The test system of data set [4] is 3D bronchial cultures. In words: Modified GSH/GSSG-Glo assay in 3D bronchial cultures. Type of data set: cell-based, human. The protocol: (§1) • 1. A tissues sample is treated basolaterally in medium containing 25 μM ROS-Glo™ H2O2 substrate for the desired exposure duration. • Treatment duration is not longer than 6 hours due to instability of the substrate. • 2. After treatment, 75 μL of the medium is collected for the ROS endpoint (see example 3), and the remaining cell or tissue sample transferred to new 24-well plate for the GSH/GSSG endpoint. ROS samples are stored at 4° C. for a maximum total of 6 hours taking into account the treatment duration, while GSH/GSSG samples must be processed immediately.
This Specific Example Based on GSH/GSSG-Glo™ Assay Kit Catalogue #V6611 and V6612 and Described in Technical Manual #TM344 from Promega • (A) Starting with the cell or tissue sample from point 2 of Example 1, the cell supernatant is removed. • (B) 100 μL of cold Passive lysis buffer is 1× diluted in water is added per well, to tissue/cell samples and shaken for 5 min at 300 rpm on ice. • (C) 100 μL of lysate is placed into 2 wells containing 50 μL each. • (D) In one well 1 μL of Luciferin-NT is added for quantification of total GSH. • (E) In the other well, 1 μL of Luciferin-NT and 0.5 μL of N-Ethylmaleimide (NEM) at 25 mM is added for quantification of oxidized GSSG. • (F) Both wells are incubated for 5 min shaking at 300 rpm at room temperature. • (G) 50 μL of Luciferin Generation Reagent is added per well, and both wells shaken for 1 min. • (H) Both wells are incubated for 29 min standing at room temperature. • (I) 100 μL of Luciferin detection reagent is added to both wells and they are shaken for 1 min. • (J) Both wells are incubated for 14 min. • (K) Both wells are transferred to an assay plate containing a calibration curve (suitably prepared as in the supplier's protocol). • (L) The luminescence of each well is measured with FLUOstar® Omega “GSHG assay”
(§2) A 3D bronchial culture can be provided by isolating bronchial cells or using commercially available primary cells, culturing them and seeding them on a 3D framework. Suitable cultures include MucilAir™. MucilAir™ is an in vitro cell model of the human airway eplithelium cultures at the air liquid interface and available from Epithelix (for example, here https://www.epithelix.com/products/mucilair).
(§3) FIG. 11 is a further schematic showing how GSH/GSSG and ROS assays (as detailed in Example 4 and Example 5 above) can be adapted to 3D bronchial cultures. In this experiment, three 3D cultures were used. […] The GSH/GSSG-Glo assays were performed on samples from the cell culture within the culture insert and the ROS-Glo assays were performed on the basolateral medium. This was performed in triplicate.

Another data set concerns HeLa. As to conditions: HeLa, 5,000 cells/well, menadione-treated; cited from earlier work.
The test system of data set [5] is 3D bronchial cultures. In words: ROS-Glo H2O2 assay on basolateral medium of 3D bronchial cultures. Type of data set: cell-based, human. The protocol:
as §1
(§4) This Specific Example is Based on Non-Lytic Variant of ROS-Glo™ H2O2 Assay Kit Catalogue #G8820 and G8821 and Described in Technical Manual TM391 from Promega. • (a) 75 μL of sample medium collected in Example 1, step 2, and 75 μL of compound interference controls are added to an assay plate. • (b) 10 wells, 100 μL per well are added to the assay plate for standard curve calibration. • (c) 75 μL of freshly prepared ROS-Glo Detection Solution™ is added to all samples and compound interference control wells.
as §2, §3

Data set [6] deals with NHBE cells. In words: ROS-Glo H2O2 assay (non-lytic) in NHBE cells. Type of data set: cell-based, human. The protocol:
• 1. A tissues sample is treated basolaterally in medium containing 25 μM ROS-GloTM H2O2 substrate for the desired exposure duration. • Treatment duration is not longer than 6 hours due to instability of the substrate. • 2. After treatment, 75 μL of the medium is collected for the ROS endpoint (see example 3), and the remaining cell or tissue sample transferred to new 24-well plate for the GSH/GSSG endpoint. ROS samples are stored at 4° C. for a maximum total of 6 hours taking into account the treatment duration, while GSH/GSSG samples must be processed immediately. This Specific Example is Based on Non-Lytic Variant of ROS-GloTM H2O2 Assay Kit Catalogue #[…] and Described in Technical Manual TM391 from Promega. • (a) 75 μL of sample medium collected in Example 1, step 2, and 75 μL of compound interference controls are added to an assay plate. • (b) 10 wells, 100 μL per well are added to the assay plate for standard curve calibration. • (c) 75 μL of freshly prepared ROS-Glo Detection SolutionTM is added to all samples and compound interference control wells. D-cysteine is added on top if not present in reagents, preferably 0.01 to 20 mM, preferably 0.1 to 10 mM. • (d) 100 μL of ROS-Glo Detection SolutionTM is added to standard curve wells. • (e) The assay plate is shaken for 1 minute at room temperature on a plate shaker set at 300 rpm. • (f) The plate is incubated for 20 minutes standing at room temperature. • (g) Luminescence is measured with FLUOstar® Omega using the pre-defined “ROS-GloTM H2O2 assay”. In this example oxidative stress was simulated by adding menadione sodium bisulfite to four samples. Four of the samples had 10 μM, 30 μM, 100 μM or 300 μM of menadione sodium bisulfite respectively added to the medium to simulate increasing levels of oxidative stress. The fifth sample was used as the vehicle control wherein on the medium and 0.3% water were added. The assays were performed in triplicate on NHBE cells. In the top row of FIG. 9, the same experiments of the invention as per Example 6 (shown top row of FIG. 8) were carried out. […]

Data set [7] deals with A549 lung cell line. In words: ROS-Glo H2O2 assay in A549 lung cell line. Type of data set: cell-based, human. As to conditions: A549, dose-dependent. The protocol: as §4
In this experiment, an A549 lung cell line was exposed to lipid-soluble menadione (Vitamin K3) to simulate oxidative stress.

Data set [8] deals with NHBE cells. In words: Cell viability / cytotoxicity (ATP levels) in NHBE cells. It counts as cell-based, human.
The test system of data set [9] is A549 lung cell line. In words: GSH/GSSG assay in A549 lung cell line. It counts as cell-based, human. As to conditions: A549, dose-dependent. The protocol:
This Specific Example Based on GSH/GSSG-Glo™ Assay Kit Catalogue #V6611 and V6612 and Described in Technical Manual #TM344 from Promega • (A) Starting with the cell or tissue sample from point 2 of Example 1, the cell supernatant is removed. • (B) 100 μL of cold Passive lysis buffer is 1× diluted in water is added per well, to tissue/cell samples and shaken for 5 min at 300 rpm on ice. • (C) 100 μL of lysate is placed into 2 wells containing 50 μL each. • (D) In one well 1 μL of Luciferin-NT is added for quantification of total GSH. • (E) In the other well, 1 μL of Luciferin-NT and 0.5 μL of N-Ethylmaleimide (NEM) at 25 mM is added for quantification of oxidized GSSG. • (F) Both wells are incubated for 5 min shaking at 300 rpm at room temperature. • (G) 50 μL of Luciferin Generation Reagent is added per well, and both wells shaken for 1 min. • (H) Both wells are incubated for 29 min standing at room temperature. • (I) 100 μL of Luciferin detection reagent is added to both wells and they are shaken for 1 min. • (J) Both wells are incubated for 14 min. • (K) Both wells are transferred to an assay plate containing a calibration curve (suitably prepared as in the supplier's protocol). • (L) The luminescence of each well is measured with FLUOstar® Omega “GSHG assay” […]

Setting [10] is: 3D bronchial cultures, lipid-soluble menadione, dose-dependent.
Setting [11] is: 30 µM, 1 hour and 2 hour time points.
[12] abbreviates: higher dose (300 μM) versus lower dose, 3D bronchial culture.
Where [13] appears, read: higher dose (300 μM), 3D bronchial culture.
The mark [14] stands for this setting: lower dose (100 μM), 3D bronchial culture.

As for `CC1=CC(=O)c2ccccc2C1=O` [Menadione], the “Ratio GSH/GSSG” value in the data set on Rat hepatocytes is on record as 1.1; with HepG2 it was 2.2; in the data set on A549, 10.9; in the data set with HepaRG ®, 2.5; in the data set on HeLa, 2.2. The cell viability entry was “no effects on cell viability” with 3D bronchial cultures [1], “effects on cell viability at the two highest concentrations” in the data set with A549 lung cell line [2] and “decreased cell viability” in the data set with NHBE cells [8] (300 μM (highest dose)). The GSH/GSSG result in the data set on NHBE cells [3] (100 μM) is “decreased GSH/GSSG”; in the data set on NHBE cells [3] (300 μM (highest dose)), “lowest GSH/GSSG”; in the data set on 3D bronchial cultures [4] (setting [10]) it was “dose-dependent decrease”; with A549 lung cell line [9] it was “decrease in GSH/GSSG”. The compound further came in with a GSH/GSSG reduction in the data set on NHBE cells [3] (300 μM (highest dose)) of 6 fold. The GSH entry in the data set on 3D bronchial cultures [4] (setting [10]) is “dose-dependent decrease”. Besides, the GSSG result with 3D bronchial cultures [4] (setting [10]) was “increase”. The ROS entry is given as “increase” in the data set with 3D bronchial cultures [5] (setting [10]), “increased ROS” in the data set with NHBE cells [6] (100 μM), “highest ROS” in the data set with NHBE cells [6] (300 μM (highest dose)) and “increase in ROS” in the data set on A549 lung cell line [7]. In addition, in the data set on NHBE cells [8] (2 hour versus 1 hour time point), the “oxidative stress and cytotoxicity (as determined by ATP levels) with longer exposure” value was “more oxidative stress and cytotoxicity”.
For `CC1(S(=O)(=O)[O-])CC(=O)c2ccccc2C1=O.[Na+]` (stereo not shown) [Menadione sodium bisulfite, menadione sodium bisulfite], the GSH/GSSG entry in the data set on NHBE cells [3] (setting [11]) is given as “no changes in GSH/GSSG”; in the data set with 3D bronchial cultures [4] (setting [13]), “further decreased”; in the data set on 3D bronchial cultures [4] (setting [14]) it was “no effect on GSH/GSSG”. Moreover, the GSSG entry with 3D bronchial cultures [4] (setting [12]) is reported as “no further impact”. In the data set on 3D bronchial cultures [4] (setting [13]), the GSH entry was “further decreased”. For the same compound, the results for the ROS result with 3D bronchial cultures [5] (setting [12]), with 3D bronchial cultures [5] (setting [14]) and in the data set on NHBE cells [6] (setting [11]) were “no further impact”, “significantly increased ROS” and “increased ROS”, respectively.
